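Protocol summary: plate cells (96-well), add compound at 5 concentrations, incubate 48 h, interpolate endpoints linearly. Abbreviation: GI50, concentration required for 50% inhibition of growth. TGI is the concentration that stops growth completely.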
How the values were obtained:
Assay in all cases: DTP human tumour cell line panel, 48 h
K-562 leukemia = system: K-562 leukemia
CAKI-1 renal = system: CAKI-1 renal
SK-MEL-2 melanoma = system: SK-MEL-2 melanoma
SW-620 colon = system: SW-620 colon
SF-539 CNS = system: SF-539 CNS
OVCAR-4 ovarian = system: OVCAR-4 ovarian
CCRF-CEM leukemia = system: CCRF-CEM leukemia
NCI/ADR-RES ovarian = system: NCI/ADR-RES ovarian
ACHN renal = system: ACHN renal
M14 melanoma = system: M14 melanoma

Row | SMILES | TGI (K-562 leukemia) [µM] | TGI (CAKI-1 renal) [µM] | TGI (SK-MEL-2 melanoma) [µM] | TGI (SW-620 colon) [µM] | TGI (SF-539 CNS) [µM] | TGI (OVCAR-4 ovarian) [µM] | TGI (CCRF-CEM leukemia) [µM] | TGI (NCI/ADR-RES ovarian) [µM] | TGI (ACHN renal) [µM] | TGI (M14 melanoma) [µM] | GI50 (K-562 leukemia) [nM] | GI50 (CAKI-1 renal) [µM] | GI50 (SK-MEL-2 melanoma) [µM] | GI50 (SW-620 colon) [µM] | GI50 (SF-539 CNS) [nM] | GI50 (OVCAR-4 ovarian) [µM] | GI50 (CCRF-CEM leukemia) [µM] | GI50 (NCI/ADR-RES ovarian) [µM] | GI50 (ACHN renal) [µM] | GI50 (M14 melanoma) [µM]
1 | CCOC1C=CCCO1 (configuration not stated) | > 100 | > 100 | > 100 | > 100 | > 100 | > 100 | > 100 | > 100 | > 100 | > 100 |  |  |  |  |  |  |  |  |  | 
2 | COc1ccc(/C=C/C(=O)c2cc3c(N)c(C(=O)Nc4ccccc4)sc3nc2C)cc1 | > 50 | > 50 | > 50 | 11.7 | 0.286 | > 50 | > 28.7 |  | > 23 | > 50 | 140 | 0.258 | 0.422 | 0.216 | 105 | 0.472 | 0.184 | 0.121 | 0.344 | 0.0907
3 | COc1cc(/C=C/C(=O)c2c(C)n([O-])c3ccc(Cl)cc3[n+]2=O)cc(OC)c1OC | > 100 | > 100 | > 100 | > 100 | 52.6 | > 100 | > 100 | > 100 | > 100 | > 100 | 15200 | > 100 | > 100 | > 100 | 25400 | > 100 | > 100 | 90.9 | > 100 | > 100
4 | CC(C)C[C@@H]1NC(=O)[C@@H]2CCCN2C(=O)[C@@H]2CCCN2C(=O)[C@H](CC(C)C)NC(=O)[C@H](CO)NC(=O)[C@H](CCCCN)NC(=O)[C@H]([C@H](C)O)NC(=O)[C@@H]2CCCC[C@@H](NC1=O)C(=O)N[C@@H](Cc1ccccc1)C(=O)N1CCC[C@H]1C(=O)N[C@@H](CC(=O)O)C(=O)NCC(=O)N[C@@H](CCCN=C(N)N)C(=O)N2 | > 50 | > 50 | > 50 | > 50 | > 50 | > 50 | > 50 | > 50 | > 50 |  | > 50000 | > 50 | > 50 | > 50 | > 50000 | > 50 | > 50 | > 50 | > 50 | 
5 | O=C(/C=C/c1ccc(C(F)(F)F)cc1)c1ccc(Nc2nc(NCCO)nc(N3CCOCC3)n2)cc1 | > 100 | 15.6 | 21.5 | 4.05 | 3.06 | 10.2 | 6.61 | 9.52 | 3.86 | 4.28 | 2330 | 2.54 | 8.66 | 1.92 | 1640 | 3.05 | 2.41 | 2.87 | 1.86 | 2.01
6 | C[C@@H]1C[C@@]2(O[C@@H]2C)C(=O)O[C@@H]2CCN3CC=C(COC(=O)[C@]1(C)O)[C@H]23 | > 100 | > 100 | > 100 | > 100 | > 100 | > 100 | > 100 | > 100 | > 100 | > 100 |  |  |  |  |  |  |  |  |  | 
7 | CC1/C(=N/Nc2ccc([N+](=O)[O-])cc2)CC2C3(C)CCC2(C(C)C(=O)O)C(=O)C13 (configuration not stated) |  | > 100 | > 100 | > 100 | > 100 | > 100 | > 100 | > 100 | > 100 | > 100 |  | 5.95 | 8.75 | 49.4 | 5440 | > 100 | 16.3 | 5.7 | 6.33 | 11.2
8 | Oc1c(N=Nc2ccccc2)c2ccccc2c2ccc3ccccc3c12 | > 100 | > 100 | > 100 | > 100 | 85.2 | > 100 | > 100 | > 100 | > 100 | > 100 |  |  |  |  |  |  |  |  |  | 
9 | CCCN(CCC)C(=O)[C@H](CC)[C@@H]1CC[C@@H](C)[C@@H]([C@H](C)[C@@H](O)[C@@H](C)C(=O)[C@H](CC)C2O[C@]3(C=C[C@@H](O)[C@]4(CC[C@@](C)([C@H]5CC[C@](O)(CC)[C@H](C)O5)O4)O3)[C@H](C)C[C@@H]2C)O1 (some centres not stated) | 13 | 8.7 | 6.63 | 10.6 | 4.2 | 13.2 | 8.83 | 10.3 | 10.3 |  | 2680 | 1.95 | 2.43 | 3.23 | 2060 | 2.95 | 2.78 | 2.93 | 3.18 | 
10 | COc1cc([N+](=O)[O-])c(OC)cc1-c1nc2sc(Cl)cn2c1/C=N/NC(=N)N/N=C/c1c(-c2cc(OC)c([N+](=O)[O-])cc2OC)nc2sc(Cl)cn12 |  | 23.8 |  | 3.55 | 1.8 | 5.71 |  | > 100 | 4.88 | 3.36 |  | 4.33 |  | 1.85 | 387 | 2.42 |  | > 100 | 2.23 | 1.91
11 | COC(=O)c1cc2oc(/C=C3\SC(=S)N(NC(C)=O)C3=O)cc2n1Cc1ccccc1 | > 50 | 7.79 | > 50 | 39 | 14 |  |  | 19.5 | 10.5 | 16.4 | 1080 | 2.42 | 18.5 | 8.35 | 2790 |  |  | 7.77 | 3.68 | 8.04
12 | Clc1nc(Cl)c(Cc2ccccc2)c(Cl)n1 | > 100 |  | > 100 | > 100 | 20 | 29.4 | > 100 | > 100 | 32 | 8.38 |  |  |  |  |  |  |  |  |  | 
13 | O=C(N/N=C\c1ccc(N(CCCl)CCCl)cc1Cl)c1cccnc1 | > 100 | 48.2 | 53.3 | > 100 | > 100 | 38.5 | > 90.6 | > 94.3 | > 100 | > 83.7 | 7380 | 7.06 | 14.3 | 19.2 | 33100 | 5.28 | 14.5 | 19.6 | 28.5 | 26.5
14 | O=C(NCP(=O)(O)O)c1cccnc1 | > 100 | > 100 | > 100 | > 100 | > 100 | > 100 | > 100 | > 100 | > 100 | > 100 |  |  |  |  |  |  |  |  |  | 

From PubChem BioAssay (NCI)
